According to ChEMBL document CHEMBL1201862, “PubChem BioAssay data set” (2004):
Calls of active or inactive are those of the source.

Experiments:
Format in all cases: functional
[1] = target: T1, High affinity choline transporter 1 (Homo sapiens, UniProt Q9GZV3); test: CHT inhibitors, dose response, cell-based, 5-point CRC, membrane potential dye (AID 504840)
T1 sequence (Q9GZV3 whole entry): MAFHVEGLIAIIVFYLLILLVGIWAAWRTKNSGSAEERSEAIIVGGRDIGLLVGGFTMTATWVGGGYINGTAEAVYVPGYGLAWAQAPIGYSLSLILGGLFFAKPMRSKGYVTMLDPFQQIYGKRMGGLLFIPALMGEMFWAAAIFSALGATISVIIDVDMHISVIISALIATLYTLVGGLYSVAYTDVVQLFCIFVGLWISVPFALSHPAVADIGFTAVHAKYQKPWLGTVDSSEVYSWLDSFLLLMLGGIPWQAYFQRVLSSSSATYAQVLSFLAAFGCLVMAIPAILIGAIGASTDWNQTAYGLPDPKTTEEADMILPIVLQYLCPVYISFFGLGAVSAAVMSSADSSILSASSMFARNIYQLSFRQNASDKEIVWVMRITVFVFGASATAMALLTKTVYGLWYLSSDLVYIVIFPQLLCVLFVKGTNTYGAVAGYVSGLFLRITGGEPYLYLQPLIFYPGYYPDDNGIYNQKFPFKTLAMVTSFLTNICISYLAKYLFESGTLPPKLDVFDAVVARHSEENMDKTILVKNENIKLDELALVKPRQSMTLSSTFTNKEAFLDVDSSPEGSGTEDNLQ

[2] = target: T1, High affinity choline transporter 1; test: inhibitors of CHT choline uptake, dose response, cell-based, 3H-choline uptake, CHT LV-AA trafficking mutant, CRC (AID 602208)
[3] = target: T1, High affinity choline transporter 1; test: CHT inhibitors, dose response, cell-based, 10-point CRC, membrane potential dye (AID 588401);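 also: membrane potential dye fluorescence of choline-evoked depolarization via CHT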

Measured: IC50

COc1ccc(C(=O)NCc2nc(C)c(C)s2)cc1OC1CCN(C(C)C)CC1
active: [1] 1320 nM | [2] 303 nM | [3] 761 nM
